# Values quoted from earlier work in article PMC9199201, “Biomimetic and temporal-controlled nanocarriers with ileum transporter targeting for achieving oral administration of chemotherapeutic drugs” (Journal of Nanobiotechnology, 2022).
# Parameters: method as in PMID 23220325
smiles,measurement,value
"CC(=O)O[C@H]1C(=O)[C@@]2(C)[C@H]([C@H](OC(=O)c3ccccc3)[C@]3(O)C[C@H](OC(=O)[C@H](O)[C@@H](NC(=O)c4ccccc4)c4ccccc4)C(C)=C1C3(C)C)[C@]1(OC(C)=O)CO[C@@H]1C[C@@H]2O [PTX, paclitaxel]",Oral bioavailability,less than 1%
